# Test results from US20140288056A1, “METHODS FOR NON-TOXIC TREATMENT FOR DRUG WITHDRAWAL” (DEMERX, INC., priority 2013, published 2014).
# How the values were obtained:
# [1] = test system: dogs; assay: Acute oral toxicity/TK study in dogs; type: in vivo, dog
# [2] = test system: cynomolgus monkey; assay: Single dose toxicity in cynomolgus monkeys, oral gavage; type: in vivo
# Protocol: The objective of the study was to determine the toxicity and toxicokinetic profile of noribogaine following oral (gavage) administration to the cynomolgus monkey. The test article was administered as follows in Table 1:
# Parameters monitored on the study included: mortality, clinical signs and body weights. Blood samples were collected for TK evaluation. […] The single dose maximum tolerated dose (MTD) was determined to be greater than 160 mg/kg based on the parameters monitored during the study.
# [3] = Plasma toxicokinetics in dogs, 14 day repeat dose study; type: in vivo, dog
# Protocol: Noribogaine HCl was administered to groups of 4 male and 4 female dogs by single oral gavage daily for 14 days at doses of 0, 0.5, 1.0 and 5.0 mg/kg/day. An additional group of 4 male and 4 female dogs received either the vehicle control or 5.0 mg/kg/day for 14 days and were held for an additional 28 days after cessation of dosing to assess recovery from any potential drug-induced changes. The study was conducted under GLP guidelines and included comprehensive examinations of clinical signs, body weight, clinical pathology parameters, ophthalmologic examinations, ECG recordings and analyses of plasma for bioanalytical measurement of drug levels at appropriate intervals during the study. At the termination of the dosing phase and at the termination of the recovery phase, all dogs were subjected to a complete post-mortem examination including gross examination of major organs and histologic examination of an extensive list of tissues. Additional sections of brain were obtained from cerebrum, cerebellus, brain stem and spinal cord and examined histologically to evaluate potential effects on brain histopathology. In addition, these sections were examined with immunohistochemical stains for GFAP for evidence of gliosis and Calbindin for a more comprehensive examination of cerebellar Purkinje cells.
# [4] = Human pharmacokinetic study, single oral dose, fasting healthy volunteers; type: in vivo; settings: fasting, serum
# Protocol: In double blind studies, fasting healthy volunteers (6 per cohort) were treated once orally with a tablet of noribogaine HCl. In escalating cohorts, the volunteers received 3 mg, 10 mg, 30 mg or 60 mg noribogaine.
# [5] = test system: drug-seeking behavior; assay: Animal studies in various addiction models; type: in vivo
# [6] = test system: psychotomimetic effects; assay: Evaluation of psychotomimetic effects in an animal model; type: in vivo
# [7] = test system: various animal species; assay: Pre-clinical toxicity studies in various animal species; type: in vivo
# From the text: Given the signs of efficacy that noribogaine has shown, there is a need for a method to administer noribogaine in dosages that provide efficacy without leading to any significant deleterious clinical signs.
# [8] = female dogs, Gr 2 0.5 mg/kg, D 1
# [9] = female dogs, Gr 2 0.5 mg/kg, D 14
# [10] = female dogs, Gr 3 1.0 mg/kg, D 1
# [11] = female dogs, Gr 3 1.0 mg/kg, D 14
# [12] = female dogs, Gr 4 5.0 mg/kg, D 1
# [13] = female dogs, Gr 4 5.0 mg/kg, D 14
# [14] = male dogs, Gr 2 0.5 mg/kg, D 14
# [15] = male dogs, Gr 3 1.0 mg/kg, D 14
# [16] = male dogs, Gr 4 5.0 mg/kg, D 14
smiles,measurement,setting,value
CC[C@H]1C[C@H]2C[C@H]3c4[nH]c5ccc(O)cc5c4CCN(C2)[C@@H]13 [noribogaine],Findings at the NOAEL dose,[1]; 5 mg/kg oral,only transient reduction in food consumption in one dog
same,Convulsions and other CNS-related clinical signs,[1]; 10 mg/kg oral,occurred
same,Onset of convulsions and CNS-related clinical signs after dosing,[1]; 10 mg/kg oral,20 min
same,Mortality,[1]; 5 (n=2) or 10 (n=2) mg/kg oral,no mortality occurred
same,NOAEL,[1]; single oral dose,5 mg/kg
same,Single dose maximum tolerated dose (MTD),[2],greater than 160 mg/kg
same,Mortality or treatment related clinical signs,[2]; doses up to and including 160 mg/kg,No mortality or treatment related clinical signs were noted
same,AUC0-24 h,[3]; [8],40.4 ng·h/mL
same,AUC0-last,[3]; [8],31.5 ng·h/mL
same,AUC0-∞,[3]; [8],44.9 ng·h/mL
same,Cmax,[3]; [8],25.3 ng/mL
same,T1/2,[3]; [8],1.0 h
same,Tmax,[3]; [8],0.5 h
same,AUC0-24 h,[3]; [9],55.0 ng·h/mL
same,AUC0-last,[3]; [9],35.4 ng·h/mL
same,AUC0-∞,[3]; [9],45.7 ng·h/mL
same,Cmax,[3]; [9],29.8 ng/mL
same,T1/2,[3]; [9],1.1 h
same,Tmax,[3]; [9],1.0 h
same,AUC0-24 h,[3]; [10],176.2 ng·h/mL
same,AUC0-last,[3]; [10],148.9 ng·h/mL
same,AUC0-∞,[3]; [10],165.3 ng·h/mL
same,Cmax,[3]; [10],68.5 ng/mL
same,T1/2,[3]; [10],1.4 h
same,Tmax,[3]; [10],0.8 h
same,AUC0-24 h,[3]; [11],203.7 ng·h/mL
same,AUC0-last,[3]; [11],169.0 ng·h/mL
same,AUC0-∞,[3]; [11],197.0 ng·h/mL
same,Cmax,[3]; [11],74.1 ng/mL
same,T1/2,[3]; [11],1.6 h
same,Tmax,[3]; [11],0.5 h
same,AUC0-24 h,[3]; [12],3367.9 ng·h/mL
same,AUC0-last,[3]; [12],3367.9 ng·h/mL
same,AUC0-∞,[3]; [12],3425.7 ng·h/mL
same,Cmax,[3]; [12],691 ng/mL
same,T1/2,[3]; [12],4.3 h
same,Tmax,[3]; [12],0.6 h
same,AUC0-24 h,[3]; [13],5951.2 ng·h/mL
same,AUC0-last,[3]; [13],5951.2 ng·h/mL
same,AUC0-∞,[3]; [13],6283.2 ng·h/mL
same,Cmax,[3]; [13],683 ng/mL
same,T1/2,[3]; [13],5.7 h
same,Tmax,[3]; [13],0.6 h
same,AUC0-24 h,"[3]; male dogs, Gr 2 0.5 mg/kg, D 1",59.7 ng·h/mL
same,AUC0-last,"[3]; male dogs, Gr 2 0.5 mg/kg, D 1",46.6 ng·h/mL
same,AUC0-∞,"[3]; male dogs, Gr 2 0.5 mg/kg, D 1",67.8 ng·h/mL
same,Cmax,"[3]; male dogs, Gr 2 0.5 mg/kg, D 1",28.8 ng/mL
same,T1/2,"[3]; male dogs, Gr 2 0.5 mg/kg, D 1",1.3 h
same,Tmax,"[3]; male dogs, Gr 2 0.5 mg/kg, D 1",0.7 h
same,AUC0-24 h,[3]; [14],64.5 ng·h/mL
same,AUC0-last,[3]; [14],53.2 ng·h/mL
same,AUC0-∞,[3]; [14],68.2 ng·h/mL
same,Cmax,[3]; [14],29.4 ng/mL
same,T1/2,[3]; [14],1.3 h
same,Tmax,[3]; [14],0.7 h
same,AUC0-24 h,"[3]; male dogs, Gr 3 1.0 mg/kg, D 1",119.8 ng·h/mL
same,AUC0-last,"[3]; male dogs, Gr 3 1.0 mg/kg, D 1",102.5 ng·h/mL
same,AUC0-∞,"[3]; male dogs, Gr 3 1.0 mg/kg, D 1",120.8 ng·h/mL
same,Cmax,"[3]; male dogs, Gr 3 1.0 mg/kg, D 1",58.6 ng/mL
same,T1/2,"[3]; male dogs, Gr 3 1.0 mg/kg, D 1",1.2 h
same,Tmax,"[3]; male dogs, Gr 3 1.0 mg/kg, D 1",0.9 h
same,AUC0-24 h,[3]; [15],210.4 ng·h/mL
same,AUC0-last,[3]; [15],172.3 ng·h/mL
same,AUC0-∞,[3]; [15],195.7 ng·h/mL
same,Cmax,[3]; [15],67.6 ng/mL
same,T1/2,[3]; [15],1.8 h
same,Tmax,[3]; [15],0.8 h
same,AUC0-24 h,"[3]; male dogs, Gr 4 5.0 mg/kg, D 1",3515.0 ng·h/mL
same,AUC0-last,"[3]; male dogs, Gr 4 5.0 mg/kg, D 1",3515.0 ng·h/mL
same,AUC0-∞,"[3]; male dogs, Gr 4 5.0 mg/kg, D 1",3630.5 ng·h/mL
same,Cmax,"[3]; male dogs, Gr 4 5.0 mg/kg, D 1",693 ng/mL
same,T1/2,"[3]; male dogs, Gr 4 5.0 mg/kg, D 1",4.7 h
same,Tmax,"[3]; male dogs, Gr 4 5.0 mg/kg, D 1",0.6 h
same,AUC0-24 h,[3]; [16],6403.3 ng·h/mL
same,AUC0-last,[3]; [16],6403.3 ng·h/mL
same,AUC0-∞,[3]; [16],6961.4 ng·h/mL
same,Cmax,[3]; [16],716 ng/mL
same,T1/2,[3]; [16],6.5 h
same,Tmax,[3]; [16],0.9 h
same,mean AUC/24 hr,[4]; single dose 3 mg,3.1 ng/mL
same,mean Cmax,[4]; single dose 3 mg,5.2 ng/mL
same,mean AUC/24 hr,[4]; single dose 10 mg,10.6 ng/mL
same,mean Cmax,[4]; single dose 10 mg,14.5 ng/mL
same,mean AUC/24,[4]; single dose 30 mg,29.2 ng/mL
same,mean Cmax,[4]; single dose 30 mg,55.9 ng/mL
same,mean AUC/24,[4]; single dose 60 mg,61 ng/mL
same,mean Cmax,[4]; single dose 60 mg,116 ng/mL
same,Drug-seeking behavior,[5],significantly reduced
same,Psychotomimetic effects,[6],no activity
same,Toxic effects of high doses,[7],"convulsions and other CNS-related clinical signs, respiratory arrest and death"
